Source: patent publication US12377100B2 (GILEAD SCIENCES, INC., priority 2015, dated 2025)

What was measured:
TNFα = assay: PBMC cytokine profiling assay, TNFα induction; format: cell-based; conditions: human PBMCs, 24 hours incubation
How it was run: (§1)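 Cryopreserved healthy-donor human PBMCs (100k cells/well) were exposed for 24 h at 37 °C to a 10-point half-log compound series in 0.5% final DMSO. Secreted cytokines in the conditioned medium were quantified by MSD electrochemiluminescence, with TNFα samples diluted 1:9. AC50 was fitted by non-linear regression on percent activation normalised to plate controls.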

IL12p40 = assay: PBMC cytokine profiling assay, IL12-p40 induction; format: cell-based; conditions: human PBMCs, 24 hours incubation
How it was run: as §1

IFNα = assay: PBMC cytokine profiling assay, IFNα induction; format: cell-based; conditions: human PBMCs, 24 hours incubation
How it was run: as §1

Huh-7 cells = assay: Cytotoxicity assay, Huh-7 cells, Cell Titer Glo, 5 days; format: cell-based, human; conditions: Huh-7, five days incubation, intracellular ATP; read-out: CC50 HUH7 CTG 5D
Source text: (§2) To assess potential off-target toxicity of certain compounds disclosed herein, the in vitro cytotoxicity of those compounds was profiled using a panel of 5 cell lines with various tissue origins. Compound cytotoxicity was examined in hepatoma-derived Huh-7 and HepG2 cells, prostate carcinoma-derived PC-3 cells, lymphoma derived MT-4 cells and a normal diploid lung cell line MRC-5. HepG2 and PC-3 cells used were adapted to grow in glucose-free galactose-containing medium. These cells have a relatively higher sensitivity to inhibitors of mitochondrial oxidative phosphorylation compared to the same cells maintained in standard glucose-containing culture medium (Marroquin et al., Toxicol. Sci. 2007; 97 (2):539-47). Cell viability was determined by measuring intracellular ATP levels following five days of continuous incubation with test compounds.
(§3) The human hepatoma Huh-7 cell line was obtained from ReBLikon GmbH (Mainz, Germany) {20879}. The MT-4 cell line (HTLV-1 transformed, human T lymphoblastoid cells) was obtained from the NIH AIDS Reagent program (Bathesda, MD). The human hepatoblastoma cell line HepG2, human prostate carcinoma cell line PC-3, and normal fetal lung derived MRC-5 cells were obtained from the American Type Culture Collection (ATCC, Manassas, VA).
(§4) Huh-7 cells were maintained in Dulbecco's Modified Eagle Medium (DMEM) supplemented with 10% fetal bovine serum (FBS, Hyclone, Logan, UT), 1% non-essential amino acids (Gibco, Carlsbad, CA). PC-3 and HepG2 cells were adapted to grow in 0.2% galactose-containing, glucose-free Dulbecco's Modified Eagle Medium (DMEM) supplemented with 10% fetal bovine serum (FBS, Hyclone, Logan, UT), 1% non-essential amino acids (Gibco, Carlsbad, CA), 1% Pyruvate (Cellgro), 1% Glutamax (Invitrogen, Carlsbad, CA). Galactose-adapted cells were maintained in the same culture medium. MRC-5 cells were maintained in Eagle's Minimum Essential Medium (EMEM) supplemented with 10% fetal bovine serum (FBS, Hyclone, Logan, UT). MT-4 cells were maintained in RPMI-1640 supplemented with 10% fetal bovine serum (FBS, Hyclone, Logan, UT). All cell culture media were also supplemented with 100 Units/mL penicillin, 100 μg/mL streptomycin (Gibco).
(§5) Using a Biotek uFlow Workstation (Biotek, Winooski, VT), 1500 HepG2, 1500 PC-3, 500 Huh7 or 1500 MRC-5 cells in 90 μL of culture media were dispensed into each well of black polystyrene tissue culture-treated 384-well plates. Plated cells were incubated for 24 hours in an incubator at 37° C., 5% CO2 and 90% humidity. Compound serial dilutions were performed in 100% DMSO in 384-well polypropylene (high recovery) plates on a Biomek FX Workstation (Beckman Coulter, Fullerton, CA). After 3-fold serial dilutions, 0.4 μL of compounds were transferred into 384-well plates containing cells using a Velocity 11 system equipped with a Bravo 384-well pipettor. The DMSO concentration in the final assay plates was 0.44% (v/v). Cells were incubated with compound(s) for five days at 37° C. Puromycin (44 μM final concentration) and DMSO (0.44%, v/v) were used as a positive and negative controls, respectively
(§6) At the end of the incubation period the cytotoxicity assay was performed as follows: Media from 384-well cell culture plates were aspirated with a Biotek EL405 plate-washer (Biotek) and cells were washed with 100 μL PBS once. Twenty microliters of Cell Titer Glo (Promega, Madison, WI) was added to each well of the plates with a Biotek uFlow liquid dispenser. Plates were incubated for 15 minutes at room temperature before luminescence was measured with a Perkin Elmer Envision Plate Reader (Perkin Elmer, Waltham, MA).
(§7) CC50 values were defined as the compound concentration that caused a 50% decrease in luminescence signal, and were calculated by non-linear regression using Pipeline Pilot software by applying a four parameter fit equation (Accelrys, San Diego, CA). Individual CC50 values are listed as μM concentrations.

MRC-5 cells = assay: Cytotoxicity assay, MRC-5 cells, Cell Titer Glo, 5 days; format: cell-based, human; conditions: MRC-5, five days incubation, intracellular ATP; read-out: CC50 MRC5 CTG 5D
Source text: as §2, §3, §4, §5, §6, §7

[1] = MT-4 cytotoxicity assay, Cell Titer Glo, 5 days; format: cell-based, human; conditions: human, MT-4 cells; MT-4, five days incubation, intracellular ATP; read-out: CC50 (MT4)
Source text: as §2, §3, §4
(§8) For the MT-4 cytotoxicity assay, 0.4 μL of serially diluted compounds were added to 40 μl of cell maintenance media in 384-well black, solid bottom plate using a Biomek FX workstation (Beckman Coulter). Two thousand cells in 35 μL were added to each well using a Biotek uFlow Workstation (Biotek). Each assay plate contained 10 μM Puromycin (final concentration) and 0.5% DMSO in RPMI-1640 as positive and negative controls, respectively. Assay plates were incubated for five days at 37° C. in an incubator set at 5% CO2 and 90% humidity. After five days, 22 μL of Cell Titer Glo reagent (Promega) was added to the assay plates with a Biotek uFlow Workstation. Plates were subsequently placed on a Perkin Elmer Envision Plate Reader for five minutes before the luminescence signal was read.
as §7

[2] = Cytotoxicity assay, Huh-7 cells, Cell Titer Glo, 5 days; format: cell-based, human; conditions: human, Huh-7 cells; Huh-7, five days incubation, intracellular ATP; read-out: CC50 HUH7 CTG 5D
Source text: as §2, §3, §4, §5, §6, §7

[3] = Cytotoxicity assay, galactose-adapted HepG2 cells, Cell Titer Glo, 5 days; format: cell-based; conditions: human, galactose-adapted HepG2, five days incubation, intracellular ATP, read-out: CC50 GALHEPG2 CTG 5D
Source text: as §2, §3, §4, §5, §6, §7

[4] = Cytotoxicity assay, galactose-adapted PC-3 cells, Cell Titer Glo, 5 days; format: cell-based; conditions: human, galactose-adapted PC-3, five days incubation, intracellular ATP, read-out: CC50 GALPC3 CTG 5D
Source text: as §2, §3
as §4, with “(Gibco). […]” for “(Gibco).”
as §6, with “Twenty microliters of Cell Titer Glo (Promega, Madison, WI) was added to each well of the plates with a Biotek uFlow liquid dispenser.” left out, “MA). […]” for “MA).”

[5] = Cytotoxicity assay, MRC-5 cells, Cell Titer Glo, 5 days; format: cell-based, human; conditions: human, MRC-5 cells; MRC-5, five days incubation, intracellular ATP; read-out: CC50 MRC5 CTG 5D
Source text: as §2, §3, §4, §5, §6, §7

MT-4 cells = assay: MT-4 cytotoxicity assay, Cell Titer Glo, 5 days; format: cell-based, human; conditions: MT-4, five days incubation, intracellular ATP; read-out: CC50 (MT4)
Source text: as §2, §3, §4, §8, §7

CCCC[C@@](C)(Nc1nc(N)nc2cccnc12)C(C)O (single isomer, unassigned) [Example 97]
AC50 (TNFα): 0.14 µM | AC50 (IL12p40): 0.13 µM | AC50 (IFNα): 26 µM | CC50 (Huh-7 cells): 44.4 µM | CC50 (MRC-5 cells): 44.4 µM | CC50 at 5 days [1]: 50 µM

CCCC[C@H](CO)Nc1nc(N)nc2cccnc12 [Example 15, (R)-2-((2-aminopyrido[3,2-d]pyrimidin-4-yl)amino)hexan-1-ol]
AC50 (TNFα; Homo sapiens, PBMC, 24 h): 1.6 µM | AC50 (IL12p40; Homo sapiens, PBMC, 24 h): 1.2 µM | AC50 (IFNα; Homo sapiens, PBMC, 24 h): > 200 µM | CC50 at 5 days [2]: 10.7 µM

CCCC[C@](C)(CO)Nc1nc(N)nc2cccnc12 [Example 59, (R)-2-((2-aminopyrido[3,2-d]pyrimidin-4-yl)amino)-2-methylhexan-1-ol]
AC50 (TNFα; Homo sapiens, PBMC, 24 h): 0.18 µM | AC50 (IL12p40; Homo sapiens, PBMC, 24 h): 0.17 µM | AC50 (IFNα; Homo sapiens, PBMC, 24 h): 15 µM | CC50 at 5 days [3]: 8.88 µM | CC50 at 5 days [4]: 5.2 µM | CC50 at 5 days [2]: 35.4 µM | CC50 at 5 days [5]: 40.3 µM | CC50 at 5 days [1]: 31.4 µM

CCCC[C@](C)(CNC(C)=O)Nc1nc(N)nc2cccnc12 [Example 61]
AC50 (TNFα; Homo sapiens, PBMC, 24 h): 0.02 µM | AC50 (IL12p40; Homo sapiens, PBMC, 24 h): 0.02 µM | AC50 (IFNα; Homo sapiens, PBMC, 24 h): 42.1 µM | CC50 at 5 days [3]: 44.4 µM | CC50 (Huh-7 cells): 44.4 µM | CC50 (MRC-5 cells): 44.4 µM

CCCC[C@](C)(CNC(C)=O)Nc1nc(N)nc2c(C)ccnc12 [Example 62]
AC50 (TNFα; PBMC): 1 µM | AC50 (IL12p40; PBMC): 0.91 µM | AC50 (IFNα; PBMC): > 50 µM | CC50 at 5 days [3]: 44.4 µM | CC50 (Huh-7 cells): 44.4 µM | CC50 (MRC-5 cells): 44.4 µM | CC50 (MT-4 cells): 19.2 µM

CCCC[C@@](C)(CO)Nc1nc(N)nc2cc(F)cnc12 [Example 64, (S)-2-((2-amino-7-fluoropyrido[3,2-d]pyrimidin-4-yl)amino)-2-methylhexan-1-ol]
AC50 (TNFα; Homo sapiens, PBMC, 24 h): 3.1 µM | AC50 (IL12p40; Homo sapiens, PBMC, 24 h): 3.2 µM | AC50 (IFNα; Homo sapiens, PBMC, 24 h): 37.9 µM | CC50 at 5 days [4]: 1.55 µM | CC50 at 5 days [1]: 0.79 µM

CCCC[C@](C)(CNC(C)=O)Nc1nc(N)nc2cc(Cl)cnc12 [Example 65, (R)—N-(2-((2-amino-7-chloropyrido[3,2-d]pyrimidin-4-yl)amino)-2-methylhexyl)acetamide]
AC50 (TNFα; Homo sapiens, PBMC, 24 h): 0.11 µM | AC50 (IL12p40; Homo sapiens, PBMC, 24 h): 0.09 µM | AC50 (IFNα; Homo sapiens, PBMC, 24 h): > 50 µM | CC50 at 5 days [3]: 44.4 µM | CC50 (Huh-7 cells): 44.4 µM | CC50 (MRC-5 cells): 44.4 µM | CC50 at 5 days [1]: 50 µM

CCCC[C@](CO)(Nc1nc(N)nc2cccnc12)C(F)(F)F [Example 93, (R)-2-((2-aminopyrido[3,2-d]pyrimidin-4-yl)amino)-2-(trifluoromethyl)hexan-1-ol]
AC50 (TNFα; Homo sapiens, PBMC, 24 h): 0.44 µM | AC50 (IL12p40; Homo sapiens, PBMC, 24 h): 0.4 µM | AC50 (IFNα; Homo sapiens, PBMC, 24 h): > 50 µM | CC50 (Huh-7 cells): 44.4 µM | CC50 at 5 days [5]: 38.8 µM

CCCC[C@](C)(CNC(C)=O)Nc1nc(N)nc2cc(F)cnc12 [Example 101, (R)—N-(2-((2-amino-7-fluoropyrido[3,2-d]pyrimidin-4-yl)amino)-2-methylhexyl)acetamide]
AC50 (TNFα; Homo sapiens, PBMC, 24 h): 0.1 µM | AC50 (IL12p40; Homo sapiens, PBMC, 24 h): 0.11 µM | AC50 (IFNα; Homo sapiens, PBMC, 24 h): > 50 µM | CC50 at 5 days [3]: 44.4 µM | CC50 (Huh-7 cells): 44.4 µM | CC50 (MRC-5 cells): 44.4 µM | CC50 at 5 days [1]: 50 µM

CCC[C@@H](CO)Nc1nc(N)nc2cc(F)c(F)cc12 [X, reference compound]
AC50 (TNFα; Homo sapiens, PBMC, 24 h): 1.2 µM | AC50 (IL12p40; Homo sapiens, PBMC, 24 h): 0.97 µM | AC50 (IFNα; Homo sapiens, PBMC, 24 h): 7.1 µM | CC50 at 5 days [3]: 7.85 µM | CC50 at 5 days [4]: 6.79 µM | CC50 at 5 days [2]: 16.9 µM | CC50 at 5 days [5]: 20.9 µM | CC50 at 5 days [1]: 53.8 µM

CCCC[C@H](CO)Nc1nc(N)nc2ccsc12 [Y, reference compound]
AC50 (TNFα; Homo sapiens, PBMC, 24 h): 11.2 µM | AC50 (IL12p40; Homo sapiens, PBMC, 24 h): 13 µM | AC50 (IFNα; Homo sapiens, PBMC, 24 h): > 50 µM | CC50 at 5 days [3]: 0.19 µM | CC50 at 5 days [4]: 0.18 µM | CC50 at 5 days [2]: 2.31 µM | CC50 at 5 days [5]: 0.95 µM | CC50 at 5 days [1]: 1.42 µM
